From a compilation of properties of binary mixtures (doi:10.1016/j.molliq.2012.09.002)

Assay: xn = mol fraction of the nth substance listed
Details: 101 kPa

CCCCCC[n+]1ccn(C)c1.F[B-](F)(F)F + CN(CCO)CCO
viscosity (303.15 K, x2 = 0): 85 mPa·s | viscosity (303.15 K, x2 = 0.097): 81.7 mPa·s | viscosity (303.15 K, x2 = 0.192): 78.6 mPa·s | viscosity (303.15 K, x2 = 0.2909): 75.6 mPa·s | viscosity (303.15 K, x2 = 0.5936): 67.1 mPa·s | viscosity (303.15 K, x2 = 0.6935): 64.6 mPa·s | viscosity (303.15 K, x2 = 0.8824): 60.1 mPa·s | viscosity (308.15 K, x2 = 0): 69 mPa·s | viscosity (308.15 K, x2 = 0.097): 65.9 mPa·s | viscosity (308.15 K, x2 = 0.192): 63.1 mPa·s | viscosity (308.15 K, x2 = 0.2909): 60.3 mPa·s | viscosity (308.15 K, x2 = 0.3916): 57.6 mPa·s | viscosity (308.15 K, x2 = 0.4949): 55.1 mPa·s | viscosity (308.15 K, x2 = 0.5936): 52.7 mPa·s | viscosity (308.15 K, x2 = 0.6935): 50.5 mPa·s | viscosity (308.15 K, x2 = 0.7928): 48.3 mPa·s | viscosity (308.15 K, x2 = 0.8824): 46.5 mPa·s | viscosity (313.15 K, x2 = 0): 55 mPa·s | viscosity (313.15 K, x2 = 0.097): 52.5 mPa·s | viscosity (313.15 K, x2 = 0.192): 50.2 mPa·s | viscosity (313.15 K, x2 = 0.2909): 48 mPa·s | viscosity (313.15 K, x2 = 0.3916): 45.8 mPa·s | viscosity (313.15 K, x2 = 0.4949): 43.7 mPa·s | viscosity (313.15 K, x2 = 0.6935): 40 mPa·s | viscosity (313.15 K, x2 = 0.7928): 38.3 mPa·s | viscosity (318.15 K, x2 = 0): 43 mPa·s | viscosity (318.15 K, x2 = 0.097): 41.1 mPa·s | viscosity (318.15 K, x2 = 0.192): 39.3 mPa·s | viscosity (318.15 K, x2 = 0.2909): 37.6 mPa·s | viscosity (318.15 K, x2 = 0.3916): 35.9 mPa·s | viscosity (318.15 K, x2 = 0.5936): 32.8 mPa·s | viscosity (318.15 K, x2 = 0.6935): 31.4 mPa·s | viscosity (318.15 K, x2 = 0.7928): 30.1 mPa·s | viscosity (318.15 K, x2 = 0.8824): 28.9 mPa·s | viscosity (323.15 K, x2 = 0): 36 mPa·s | viscosity (323.15 K, x2 = 0.097): 34.2 mPa·s | viscosity (323.15 K, x2 = 0.192): 32.6 mPa·s | viscosity (323.15 K, x2 = 0.2909): 31 mPa·s | viscosity (323.15 K, x2 = 0.3916): 29.5 mPa·s | viscosity (323.15 K, x2 = 0.4949): 28 mPa·s | viscosity (323.15 K, x2 = 0.5936): 26.7 mPa·s | viscosity (323.15 K, x2 = 0.6935): 25.5 mPa·s | viscosity (323.15 K, x2 = 0.7928): 24.3 mPa·s | viscosity (323.15 K, x2 = 0.8824): 23.3 mPa·s

CN(CCO)CCO + CCCCCC[n+]1ccn(C)c1.F[B-](F)(F)F
viscosity (318.15 K, x1 = 1): 27.5 mPa·s | viscosity (323.15 K, x1 = 1): 22 mPa·s
